Data as given in US9738634B2, “Heterocyclic amide compound and herbicide” (SYNGENTA PARTICIPATIONS AG, priority 2013, dated 2017).

Experiments:
Type in all cases: in vivo
barnyard grass [1] = assay: Test Example 1: weedkilling efficacy, preemergent weed treatment in the submerged state; A: barnyard grass; settings: treatment dosage 252 g/ha
In short: (§1)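 Emulsion diluted with water to the specified per-hectare dosage is applied onto flood water (4 cm) over alluvial soil on the sowing day, with barnyard grass, bulrush and pondweed seeded and rice (2.5-leaf) transplanted; plants grow at 25–30 °C and are rated at 3 weeks.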

bulrush [2] = assay: Test Example 1: weedkilling efficacy, preemergent weed treatment in the submerged state; B: bulrush; settings: treatment dosage 252 g/ha
In short: as §1

oval-leafed pondweed [3] = assay: Test Example 1: weedkilling efficacy, preemergent weed treatment in the submerged state; C: oval-leafed pondweed; settings: treatment dosage 252 g/ha
In short: as §1

transplanted rice = assay: Test Example 1: preemergent weed treatment in the submerged state, effect on crop; a: transplanted rice; settings: treatment dosage 252 g/ha
In short: as §1

barnyard grass [4] = assay: Test Example 2: weedkilling efficacy, growth period weed treatment in the submerged state; A: barnyard grass; settings: treatment dosage 252 g/ha
In short: (§2)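 First, alluvial soil in pots is flooded to 4 cm and mixed seed is sown. Next, plants grow in a greenhouse at 25 to 30° C until the 1-2 leaf stage. Then diluted emulsion is applied onto the water surface at the given g/ha rate, and injury is assessed after 3 weeks.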

bulrush [5] = assay: Test Example 2: weedkilling efficacy, growth period weed treatment in the submerged state; B: bulrush; settings: treatment dosage 252 g/ha
In short: as §2

oval-leafed pondweed [6] = assay: Test Example 2: weedkilling efficacy, growth period weed treatment in the submerged state; C: oval-leafed pondweed; settings: treatment dosage 252 g/ha
In short: as §2

crabgrass = assay: Test Example 3: weedkilling efficacy through soil treatment; D: crabgrass; settings: soil treatment, treatment dosage 315 g/ha
From the text: (§3) Weedkilling Efficacy Test Through Soil Treatment
(§4) Sterilized diluvial soil was introduced into 21 cm long, 13 cm wide, 7 cm deep plastic boxes, and seeds of crabgrass, green foxtail, barnyard grass, wild oat, black-grass, Italian ryegrass, common wind-grass, Indian mallow, redroot pigweed, fig-leafed goosefoot, chickweed, catchweed, birds-eye speedwell, corn, soybean, rice, wheat, beet and rapeseed were each spot-sown, and covered with about 1.5 cm of soil. Next, emulsions of compounds of the present invention prepared according to compounding example 2 were diluted with water to give the specified dosages, and applied uniformly onto the soil surface with a small sprayer. The plants were grown by placing the plastic boxes in a greenhouse at 25 to 30° C., and 3 weeks after the pesticide treatment the effect on each type of plant was investigated on the basis of the assessment criteria of test example 1.
(§5) A: barnyard grass, B: bulrush, C: oval-leafed pondweed, D: crabgrass, E: green foxtail, F: barnyard grass, G: wild oat, H: black-grass, I: Italian ryegrass, J: common wind-grass, K: Indian mallow, L: redroot pigweed, M: fig-leafed goosefoot, N: chickweed, O: catchweed, p: birds-eye speedwell, a: transplanted rice, b: directly sown rice, c: corn, d: soybean, e: wheat, f: beet, g: rapeseed
(§6) Further, pesticide dosage (g/ha) indicates the concentration regulated such that treatment was with only the stated number of grams (g), when calculated per hectare (ha).

green foxtail = assay: Test Example 3: weedkilling efficacy through soil treatment; E: green foxtail; settings: soil treatment, treatment dosage 315 g/ha
From the text: as §3, §4, §5, §6

wild oat = assay: Test Example 3: weedkilling efficacy through soil treatment; G: wild oat; settings: soil treatment, treatment dosage 315 g/ha
From the text: as §3, §4, §5, §6

black-grass = assay: Test Example 3: weedkilling efficacy through soil treatment; H: black-grass; settings: soil treatment, treatment dosage 315 g/ha
From the text: as §3, §4, §5, §6

Italian ryegrass = assay: Test Example 3: weedkilling efficacy through soil treatment; I: Italian ryegrass; settings: soil treatment, treatment dosage 315 g/ha
From the text: as §3, §4, §5, §6

Indian mallow = assay: Test Example 3: weedkilling efficacy through soil treatment; K: Indian mallow; settings: soil treatment, treatment dosage 315 g/ha
From the text: as §3, §4, §5, §6

redroot pigweed = assay: Test Example 3: weedkilling efficacy through soil treatment; L: redroot pigweed; settings: soil treatment, treatment dosage 315 g/ha
From the text: as §3, §4, §5, §6

fig-leafed goosefoot = assay: Test Example 3: weedkilling efficacy through soil treatment; M: fig-leafed goosefoot; settings: soil treatment, treatment dosage 315 g/ha
From the text: as §3, §4, §5, §6

chickweed = assay: Test Example 3: weedkilling efficacy through soil treatment; N: chickweed; settings: soil treatment, treatment dosage 315 g/ha
From the text: as §3, §4, §5, §6

birds-eye speedwell = assay: Test Example 3: weedkilling efficacy through soil treatment; p: birds-eye speedwell; settings: soil treatment, treatment dosage 315 g/ha
From the text: as §3, §4, §5, §6

directly sown rice = assay: Test Example 3: soil treatment, effect on crop; b: directly sown rice; settings: soil treatment, treatment dosage 315 g/ha
From the text: as §3, §4, §5, §6

corn = assay: Test Example 3: soil treatment, effect on crop; c: corn; settings: soil treatment, treatment dosage 315 g/ha
From the text: as §3, §4, §5, §6

soybean = assay: Test Example 3: soil treatment, effect on crop; d: soybean; settings: soil treatment, treatment dosage 315 g/ha
From the text: as §3, §4, §5, §6

wheat = assay: Test Example 3: soil treatment, effect on crop; e: wheat; settings: soil treatment, treatment dosage 315 g/ha
From the text: as §3, §4, §5, §6

beet = assay: Test Example 3: soil treatment, effect on crop; f: beet; settings: soil treatment, treatment dosage 315 g/ha
From the text: as §3, §4, §5, §6

Structure (SMILES)	A: barnyard grass, weed kill grade (barnyard grass [1])	B: bulrush, weed kill grade (bulrush [2])	C: oval-leafed pondweed, weed kill grade (oval-leafed pondweed [3])	a: transplanted rice, effect on crop grade (transplanted rice)	A (barnyard grass) weedkilling efficacy grade (barnyard grass [4])	D: crabgrass, weedkilling efficacy grade (crabgrass)	E: green foxtail, weedkilling efficacy grade (green foxtail)	G: wild oat, weedkilling efficacy grade (wild oat)	H: black-grass, weedkilling efficacy grade (black-grass)	I: Italian ryegrass, weedkilling efficacy grade (Italian ryegrass)	K: Indian mallow, weedkilling efficacy grade (Indian mallow)	L: redroot pigweed, weedkilling efficacy grade (redroot pigweed)	M: fig-leafed goosefoot, weedkilling efficacy grade (fig-leafed goosefoot)	N: chickweed, weedkilling efficacy grade (chickweed)	P: birds-eye speedwell, weedkilling efficacy grade (birds-eye speedwell)	b: directly sown rice, effect on crop grade (directly sown rice)	c: corn, effect on crop grade (corn)	d: soybean, effect on crop grade (soybean)	e: wheat, effect on crop grade (wheat)	f: beet, effect on crop grade (beet)	other results
CC(C)(C(=O)Nc1cccc(Br)n1)N1COCN(c2ccccc2)C1=O [A-2-09]	5 (weed kill ratio 90% or more, (practically complete withering))	5 (weed kill ratio 90% or more, (practically complete withering))	5 (weed kill ratio 90% or more, (practically complete withering))	0 (weed kill ratio 5% or less (practically no effect))	5 (weed kill ratio 90% or more, (practically complete withering))	5 (weed kill ratio 90% or more, (practically complete withering))	5 (weed kill ratio 90% or more, (practically complete withering))	5 (weed kill ratio 90% or more, (practically complete withering))	5 (weed kill ratio 90% or more, (practically complete withering))	5 (weed kill ratio 90% or more, (practically complete withering))	3 (weed kill ratio 40% or more, less than 70%)	5 (weed kill ratio 90% or more, (practically complete withering))	4 (weed kill ratio 70% or more, less than 90%)	4 (weed kill ratio 70% or more, less than 90%)	5 (weed kill ratio 90% or more, (practically complete withering))	5 (weed kill ratio 90% or more, (practically complete withering))	3 (weed kill ratio 40% or more, less than 70%)	3 (weed kill ratio 40% or more, less than 70%)	1 (weed kill ratio 5% or more, less than 20%)	4 (weed kill ratio 70% or more, less than 90%)	B (bulrush) weedkilling efficacy grade (bulrush [5]): 5 (weed kill ratio 90% or more, (practically complete withering)); C (oval-leafed pondweed) weedkilling efficacy grade (oval-leafed pondweed [6]): 5 (weed kill ratio 90% or more, (practically complete withering))
CC(C)(C(=O)Nc1cc(Cl)ccn1)N1COCN(c2ccccc2)C1=O [A-2-06]	5 (weed kill ratio 90% or more, (practically complete withering))	5 (weed kill ratio 90% or more, (practically complete withering))	5 (weed kill ratio 90% or more, (practically complete withering))	4 (weed kill ratio 70% or more, less than 90%)	5 (weed kill ratio 90% or more, (practically complete withering))	5 (weed kill ratio 90% or more, (practically complete withering))	5 (weed kill ratio 90% or more, (practically complete withering))	5 (weed kill ratio 90% or more, (practically complete withering))	5 (weed kill ratio 90% or more, (practically complete withering))	5 (weed kill ratio 90% or more, (practically complete withering))	4 (weed kill ratio 70% or more, less than 90%)	5 (weed kill ratio 90% or more, (practically complete withering))	4 (weed kill ratio 70% or more, less than 90%)	4 (weed kill ratio 70% or more, less than 90%)	5 (weed kill ratio 90% or more, (practically complete withering))	5 (weed kill ratio 90% or more, (practically complete withering))	3 (weed kill ratio 40% or more, less than 70%)	3 (weed kill ratio 40% or more, less than 70%)	1 (weed kill ratio 5% or more, less than 20%)	4 (weed kill ratio 70% or more, less than 90%)	B (bulrush) weedkilling efficacy grade (bulrush [5]): 5 (weed kill ratio 90% or more, (practically complete withering)); C (oval-leafed pondweed) weedkilling efficacy grade (oval-leafed pondweed [6]): 5 (weed kill ratio 90% or more, (practically complete withering))
CC(C)(C(=O)Nc1cc(Cl)cc(Cl)n1)N1COCN(c2ccccc2)C1=O [A-2-17, N-(4,6-dichloropyridin-2-yl)-2-methyl-2-(4-oxo-5-phenyl-1,3,5-oxadiazinan-3-yl) propionamide]						5 (weed kill ratio 90% or more, (practically complete withering))	5 (weed kill ratio 90% or more, (practically complete withering))	5 (weed kill ratio 90% or more, (practically complete withering))	5 (weed kill ratio 90% or more, (practically complete withering))	5 (weed kill ratio 90% or more, (practically complete withering))	5 (weed kill ratio 90% or more, (practically complete withering))	5 (weed kill ratio 90% or more, (practically complete withering))	5 (weed kill ratio 90% or more, (practically complete withering))	5 (weed kill ratio 90% or more, (practically complete withering))	5 (weed kill ratio 90% or more, (practically complete withering))	5 (weed kill ratio 90% or more, (practically complete withering))	4 (weed kill ratio 70% or more, less than 90%)	5 (weed kill ratio 90% or more, (practically complete withering))	4 (weed kill ratio 70% or more, less than 90%)	5 (weed kill ratio 90% or more, (practically complete withering))	
